Assay results: PMC11365967 (Nature Communications, 2024)

Biological target: T1, CCR6 (Homo sapiens, UniProt P51684)
T1 sequence (P51684 1-374): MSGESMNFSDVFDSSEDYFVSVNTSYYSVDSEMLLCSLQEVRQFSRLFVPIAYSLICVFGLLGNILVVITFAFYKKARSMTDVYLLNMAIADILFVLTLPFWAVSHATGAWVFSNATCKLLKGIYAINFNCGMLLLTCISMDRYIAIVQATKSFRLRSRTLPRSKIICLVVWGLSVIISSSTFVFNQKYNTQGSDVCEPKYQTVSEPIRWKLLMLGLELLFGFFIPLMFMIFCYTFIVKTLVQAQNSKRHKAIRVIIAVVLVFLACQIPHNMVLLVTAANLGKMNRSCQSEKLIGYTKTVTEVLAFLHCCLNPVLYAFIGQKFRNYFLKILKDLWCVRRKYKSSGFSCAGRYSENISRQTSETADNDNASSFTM
Test: CCL20-mediated CCR6+ human T cell chemotaxis assay
Type: cell-based

Compound	activity on CCR6	pEC50, CCL20-induced CCR6+ human T cell chemotaxis (mean ± s.d., n = 5)	EC50 (read-out: EC50, CCL20-induced CCR6+ human T cell chemotaxis, n = 5)
CC(C)(C(=O)NCC1CN(C2Cc3ccccc3C2)C(=O)CO1)c1ccc(Cl)cc1 (stereo not shown) [OXM3]	neither OXM3 nor OXM4 are active		
O=C1COC(CNC(=O)C2(c3ccccc3)CC2)CN1C1Cc2ccccc2C1 (stereo not shown) [OXM4]	neither OXM3 nor OXM4 are active		
CCL20: cognate chemokine ligand (agonist) of CCR6 (Peprotech)		9.7 ± 0.9	0.19 nM
